Experimental data taken from paper PMC10424176, “Chamelogk: A Chromatographic Chameleonicity Quantifier to Design Orally Bioavailable Beyond-Rule-of-5 Drugs” (Journal of Medicinal Chemistry, 2023).

Columns and labels:
[1] = Chamelogk, chromatographic chameleonicity descriptor (PLRP-S RP-HPLC); type: physicochemical; settings: Exp. minus Ext. log k' PLRP-S at 100% MeCN, linear fit at 50, 60, 70% MeCN, 20 mM ammonium acetate pH 7.0, 30 °C
[2] = physchem; type: physicochemical; settings: pH 7
Procedure: (§1) The mobile phases for every descriptor consisted of isocratic solutions of 20 mM ammonium acetate at pH 7.0 and acetonitrile at various percentages (see the specific descriptor). Small amounts of the 55 compounds were dissolved in buffer/acetonitrile mixtures (v/v) at concentrations ranging from 50 to 100 μg/mL. Subsequently, 10 μL of each solution (injection volume) was injected at an isocratic flow rate of 1 mL/min and analyzed at 30 °C (oven temperature). Chromatographic measurements were then analyzed in duplicate based on the specific chromatographic conditions of each descriptor.
BRlogD[39] required the injection of 55 samples into the X-Bridge column at 60% MeCN (predominant mobile phase constituent). The retention times and dead time (t0, baseline interference) were recorded, and the capacity factor log k’60 was calculated adapting eq 2. Lastly, BRlogD value was calculated from eq 3 [drawing 3] 3

[3] = log kW^IAM and Δ log kW^IAM (IAM chromatography); type: physicochemical; settings: for log kW^IAM: IAM column, extrapolated to 100% buffer from 10 to 50% MeCN, pH 7.0; for Δ log kW^IAM: polarity, from log kW^IAM and BRlogD (eq 4, 5)
Procedure: as §1, with “descriptor. […] The retention times of the samples were recorded, and the capacity factor was calculated for each mobile phase condition adapting eq 2, where t0 is the retention time of citric acid.” for “descriptor.”

[4] = cited from earlier work

Brc1cnc2ccccc2c1 [3-bromoquinoline]
Chamelogk [1]: 0.13

O=C1CCC(N2C(=O)c3cccc(F)c3C2=O)C(=O)N1 (centres unmarked) [4-F-thalidomide]
Chamelogk [1]: 0.23

O=C1CCC(N2C(=O)c3cccc(O)c3C2=O)C(=O)N1 (centres unmarked) [4-hydroxy thalidomide]
Chamelogk [1]: –0.16

CCCN1C(=O)c2ccc(Cl)cc2Nc2ncccc21 [BI-0115]
Chamelogk [1]: 0.19

COc1cc(C(=O)NCCOCCOCCOCC(=O)N[C@H](C(=O)N2C[C@H](O)C[C@H]2C(=O)NCc2ccc(-c3scnc3C)cc2)C(C)(C)C)ccc1Nc1ncc(C(F)(F)F)c(Oc2cccc3c2C(=O)CC3)n1 [BI-0319]
Chamelogk [1]: 0.99

CCN1C(=O)c2cc(C)ccc2Nc2ncccc21 [BI-1580]
Chamelogk [1]: 0.1

COc1cc(C(=O)NCCOCCOCCOCCC(=O)Nc2cccc3c2C(=O)N(C2CCC(=O)NC2=O)C3=O)ccc1Nc1ncc(C(F)(F)F)c(Oc2cccc3c2C(=O)CC3)n1 (centres unmarked) [BI-3663]
Chamelogk [1]: 0.5

COc1cc(C(=O)NCCOCCOCCOCC(=O)N[C@H](C(=O)N2C[C@@H](O)C[C@H]2C(=O)NCc2ccc(-c3scnc3C)cc2)C(C)(C)C)ccc1Nc1ncc(C(F)(F)F)c(Oc2cccc3c2C(=O)CC3)n1 [BI-4206]
Chamelogk [1]: 0.7

CC(=O)N[C@H](C(=O)N1C[C@H](O)C[C@H]1C(=O)NCc1ccc(-c2scnc2C)cc1)C(C)(C)SCCCCCCNC(=O)C[C@@H]1N=C(c2ccc(Cl)cc2)c2c(sc(C)c2C)-n2c(C)nnc21 [BRD4 degrader AT1]
Chamelogk [1]: 1.26

Cc1sc2c(c1C)C(c1ccc(Cl)cc1)=NC(CC(N)=O)c1nnc(C)n1-2 (centres unmarked) [CPI203]
Chamelogk [1]: 0.54

Cc1ncsc1-c1ccc(CNC(=O)[C@@H]2C[C@@H](O)CN2C(=O)[C@@H](NC(=O)CCCCOCCCCCOCCCCCCNc2cccc3c2C(=O)N(C2CCC(=O)NC2=O)C3=O)C(C)(C)C)cc1 (some centres unmarked) [CRBN-6-5-5-VHL]
Chamelogk [1]: 1.05

CCn1nc(C2CC2)cc1Nc1nc(C(=O)NC)nc2[nH]c3cc(-c4c(C)noc4C)c(OC)cc3c12 [HJB97]
Chamelogk [1]: 0.15

COC(=O)C[C@@H]1N=C(c2ccc(Cl)cc2)c2c(sc(C)c2C)-n2c(C)nnc21 [MS-417]
Chamelogk [1]: 0.29

CC(=O)N1c2ccc(-c3ccc(C(=O)NCCOCCOCCOCC(=O)N[C@H](C(=O)N4C[C@H](O)C[C@H]4C(=O)NCc4ccc(-c5scnc5C)cc4)C(C)(C)C)cc3)cc2[C@H](Nc2ccc(Cl)cc2)C[C@@H]1C [MZP-54]
Chamelogk [1]: 1.18

Cc1ncsc1-c1ccc(CNC(=O)[C@@H]2C[C@@H](O)CN2C(=O)[C@@H](NC(=O)C2(C#N)CC2)C(C)(C)C)c(O)c1 [OH-VH298 (S,R,S)]
Chamelogk [1]: 0.48

Cc1sc2c(c1C)C(c1ccc(Cl)cc1)=N[C@@H](CC(=O)Nc1ccc(O)cc1)c1nnc(C)n1-2 [OTX-015]
Chamelogk [1]: 0.64

Nc1ccc(OCCOCCOCCOCCNc2cccc3c2C(=O)N(C2CCC(=O)NC2=O)C3=O)cc1 (centres unmarked) [PEG4-PH-NH2-pomalidomide]
Chamelogk [1]: 0.12

Cc1sc2c(c1C)C(c1ccc(Cl)cc1)=N[C@@H](CC(=O)NCCCCCC(=O)NCc1cccc3c1C(=O)N(C1CCC(=O)NC1=O)C3=O)c1nnc(C)n1-2 (some centres unmarked) [PROTAC BET degrader-10]
Chamelogk [1]: 0.83

Cc1ncsc1-c1ccc(CNC(=O)[C@@H]2C[C@@H](O)CN2C(=O)[C@@H](NC(=O)CCOCCOc2ccc(Nc3ncc(C(F)(F)F)c(NCc4cccc(N(C)S(C)(=O)=O)c4)n3)cc2)C(C)(C)C)cc1 [PROTAC FAK degrader-1]
Chamelogk [1]: 0.79

O=C(CCCCC(=O)NCCN1C(=O)c2cccc3c(Sc4ccc(Br)cc4)ccc(c23)C1=O)NCCCCCCNc1cccc2c1C(=O)N(C1CCC(=O)NC1=O)C2=O (centres unmarked) [PROTAC Mcl degrader-1]
Chamelogk [1]: 0.93

Cc1ncsc1-c1ccc(CNC(=O)[C@@H]2C[C@@H](O)CN2C(=O)[C@@H](NC(=O)COCCOCCNC(=O)COc2cnc3c(C4CCN(C(=O)c5ccc(OC(F)(F)F)cc5)CC4)ncnc3c2)C(C)(C)C)cc1 [PROTAC-1]
Chamelogk [1]: 1.07

COC(=O)C[C@@H]1N=C(c2ccc(Cl)cc2)c2c(sc(C(=O)NCCCCCNc3cccc4c3C(=O)N(C3CCC(=O)NC3=O)C4=O)c2C)-n2c(C)nnc21 (some centres unmarked) [ZXH-3-26]
Chamelogk [1]: 0.65

CC(C)=O [acetone]
Chamelogk [1]: –0.13

c1ccc(-c2ccc(C(c3ccccc3)n3ccnc3)cc2)cc1 (centres unmarked) [bifonazole]
Chamelogk [1]: 0.45

Cc1ncsc1-c1ccc(CNC(=O)[C@@H]2C[C@H](O)CN2C(=O)[C@@H](NC(=O)C2(C#N)CC2)C(C)(C)C)c(O)c1 [cis-OH-VH298 (S,S,S)]
Chamelogk [1]: 0.45

CC(=O)N[C@H](C(=O)N1C[C@@H](O)C[C@H]1C(=O)NCc1ccc(-c2scnc2C)cc1O)C(C)(C)C [cis-phenol-VH032 (S,S,S)]
Chamelogk [1]: 0.65

Clc1ccccc1C(c1ccccc1)(c1ccccc1)n1ccnc1 [clotrimazole]
Chamelogk [1]: 0.71

Cc1sc2c(c1C)C(c1ccc(Cl)cc1)=N[C@@H](CC(=O)NCCCCNC(=O)COc1cccc3c1C(=O)N(C1CCC(=O)NC1=O)C3=O)c1nnc(C)n1-2 (some centres unmarked) [dBET1]
Chamelogk [1]: 0.8

Cc1sc2c(c1C)C(c1ccc(Cl)cc1)=N[C@@H](CC(=O)NCCCCCCCCNC(=O)COc1cccc3c1C(=O)N(C1CCC(=O)NC1=O)C3=O)c1nnc(C)n1-2 (some centres unmarked) [dBET6]
Chamelogk [1]: 0.86

CN1C(=O)CN=C(c2ccccc2)c2cc(Cl)ccc21 [diazepam]
Chamelogk [1]: 0.30
Chamelogk ([1]; listed as Diazepam): 0.3

CC/C(=C(/CC)c1ccc(O)cc1)c1ccc(O)cc1 [diethylstilbestrol]
Chamelogk [1]: 0.44

CO[C@H]1C[C@@H]2CC[C@@H](C)[C@@](O)(O2)C(=O)C(=O)N2CCCC[C@H]2C(=O)O[C@H]([C@H](C)C[C@@H]2CC[C@@H](OCCO)[C@H](OC)C2)CC(=O)[C@H](C)/C=C(\C)[C@@H](O)[C@@H](OC)C(=O)[C@H](C)C[C@H](C)/C=C/C=C/C=C/1C [everolimus]
Chamelogk [1]: 0.45
chromatographic logD [2]: 4.86
log kW^IAM [3]: 4.15
Δ log kW^IAM [3]: 0.71
ChameLogD [4]: 1.7

COc1cc2ncnc(Nc3ccc(F)c(Cl)c3)c2cc1OCCCCCOCCOCCC(=O)N[C@H](C(=O)N1C[C@H](O)C[C@H]1C(=O)NCc1ccc(-c2scnc2C)cc1)C(C)(C)C [gefitinib-based PROTAC 3]
Chamelogk [1]: 1.36

C[C@]12CCC(=O)C=C1CC[C@@H]1[C@@H]2[C@@H](O)C[C@@]2(C)[C@H]1CC[C@]2(O)C(=O)CO [hydrocortisone]
Chamelogk [1]: 0.10
Chamelogk ([1]; listed as Hydrocortisone): 0.1

c1ccc2ccccc2c1 [naphthalene]
Chamelogk [1]: 0.02

CC(=O)O[C@H]1C(=O)[C@@]2(C)[C@H]([C@H](OC(=O)c3ccccc3)[C@]3(O)C[C@H](OC(=O)[C@H](O)[C@@H](NC(=O)c4ccccc4)c4ccccc4)C(C)=C1C3(C)C)[C@]1(OC(C)=O)CO[C@@H]1C[C@@H]2O [paclitaxel]
Chamelogk [1]: 0.15

CC(=O)N[C@H](C(=O)N1C[C@H](O)C[C@H]1C(=O)NCc1ccc(-c2scnc2C)cc1O)C(C)(C)C [phenol-VH032 (S,R,S)]
Chamelogk [1]: 0.37

Oc1ccccc1 [phenol]
Chamelogk [1]: 0.16

CC[C@@H]1/C=C(\C)C[C@H](C)C[C@H](OC)[C@H]2O[C@@](O)(C(=O)C(=O)N3CCCC[C@H]3C(=O)O[C@H](/C(C)=C/[C@@H]3CC[C@H](Cl)[C@H](OC)C3)[C@H](C)[C@@H](O)CC1=O)[C@H](C)C[C@@H]2OC [pimecrolimus]
Chamelogk [1]: 0.43
chromatographic logD [2]: 6.52
log kW^IAM [3]: 3.35
Δ log kW^IAM [3]: -1.62

Nc1cccc2c1C(=O)N(C1CCC(=O)NC1=O)C2=O (centres unmarked) [pomalidomide]
Chamelogk [1]: 0.00
Chamelogk ([1]; listed as Pomalidomide): 0

CO[C@H]1C[C@@H]2CC[C@@H](C)[C@@](O)(O2)C(=O)C(=O)N2CCCC[C@H]2C(=O)O[C@H]([C@H](C)C[C@@H]2CC[C@@H](OC(=O)C(C)(CO)CO)[C@H](OC)C2)CC(=O)[C@H](C)/C=C(\C)[C@@H](O)[C@@H](OC)C(=O)[C@H](C)C[C@H](C)/C=C/C=C/C=C/1C [temsirolimus]
Chamelogk [1]: 0.23
ChameLogD [4]: 2

C=C/C=C/C[C@@H](C)[C@@H](O)[C@H]1C(=O)N[C@@H](CC)C(=O)N(C)CC(=O)N(C)[C@@H](CC(C)C)C(=O)N[C@@H](C(C)C)C(=O)N(C)[C@@H](CC(C)C)C(=O)N[C@@H](C)C(=O)N[C@H](C)C(=O)N(C)[C@@H](CC(C)C)C(=O)N(C)[C@@H](CC(C)C)C(=O)N(C)[C@@H](C(C)C)C(=O)N1C [voclosporin]
Chamelogk [1]: 1.15
